These results are taken from ChEMBL document CHEMBL5291721, “A preclinical secondary pharmacology resource illuminates target-adverse drug reaction associations of marketed drugs” (Nat Commun, 2023).

For experiment [1], the target named is Acetylcholinesterase (Homo sapiens, UniProt P22303). The format is functional.
Experiment [2] has as its target T1, Muscarinic acetylcholine receptor M2 (Homo sapiens, UniProt P08172).
T1 sequence (P08172 whole entry): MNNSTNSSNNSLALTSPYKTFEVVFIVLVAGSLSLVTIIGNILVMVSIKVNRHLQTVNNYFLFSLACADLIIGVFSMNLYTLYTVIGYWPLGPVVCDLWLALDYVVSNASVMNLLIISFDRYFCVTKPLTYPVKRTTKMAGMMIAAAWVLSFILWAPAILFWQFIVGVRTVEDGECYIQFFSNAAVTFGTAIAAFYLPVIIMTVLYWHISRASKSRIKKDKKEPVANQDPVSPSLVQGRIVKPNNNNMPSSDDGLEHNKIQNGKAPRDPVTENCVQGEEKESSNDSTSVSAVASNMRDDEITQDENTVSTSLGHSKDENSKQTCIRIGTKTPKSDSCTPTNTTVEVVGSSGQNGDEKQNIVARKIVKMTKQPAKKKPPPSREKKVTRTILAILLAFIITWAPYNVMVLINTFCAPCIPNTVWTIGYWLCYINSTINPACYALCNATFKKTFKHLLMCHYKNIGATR

Experiment [3] addresses D(3) dopamine receptor (Homo sapiens, UniProt P35462).
Experiment [4] deals with Histamine H3 receptor (Homo sapiens, UniProt Q9Y5N1).
Experiment [5] deals with Prostaglandin G/H synthase 1 (Homo sapiens, UniProt P23219). The class given is functional.
For experiment [6], the target named is T2, Thromboxane A2 receptor (Homo sapiens, UniProt P21731).
T2 sequence (P21731 whole entry): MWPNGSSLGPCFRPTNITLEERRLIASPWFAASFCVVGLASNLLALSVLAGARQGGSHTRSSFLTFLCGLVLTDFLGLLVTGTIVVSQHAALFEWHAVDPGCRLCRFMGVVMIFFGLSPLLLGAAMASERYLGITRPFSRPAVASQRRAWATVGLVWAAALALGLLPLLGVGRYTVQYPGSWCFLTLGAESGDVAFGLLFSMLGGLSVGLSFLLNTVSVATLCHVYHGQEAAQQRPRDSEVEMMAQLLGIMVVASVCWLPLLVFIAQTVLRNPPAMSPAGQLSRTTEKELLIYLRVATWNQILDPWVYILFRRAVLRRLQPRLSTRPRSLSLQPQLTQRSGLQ
The format is functional, cell-based.

In experiment [7] the target is T2, Thromboxane A2 receptor. The class given is functional, cell-based. The source holds these as a separate data set.
The target of experiment [8] is Beta-2 adrenergic receptor (Homo sapiens, UniProt P07550). The class given is functional, cell-based.
Experiment [9] deals with Histamine H2 receptor (Homo sapiens, UniProt P25021). The format is functional, cell-based.
The target in experiment [10] is Sodium-dependent dopamine transporter (Homo sapiens, UniProt Q01959).
For experiment [11], the target named is T3, Mu-type opioid receptor (Homo sapiens, UniProt P35372).
Experiment [12] concerns the target Muscarinic acetylcholine receptor M3 (Homo sapiens, UniProt P20309).
Experiment [13] concerns the target Histamine H1 receptor (Homo sapiens, UniProt P35367).
The target of experiment [14] is Sodium-dependent serotonin transporter (Homo sapiens, UniProt P31645).
For experiment [15], the target named is T3, Mu-type opioid receptor. In words: biochemical. The class given is functional.
Further: assay procedure not described here.

Sequence of D(3) dopamine receptor (P35462 whole entry): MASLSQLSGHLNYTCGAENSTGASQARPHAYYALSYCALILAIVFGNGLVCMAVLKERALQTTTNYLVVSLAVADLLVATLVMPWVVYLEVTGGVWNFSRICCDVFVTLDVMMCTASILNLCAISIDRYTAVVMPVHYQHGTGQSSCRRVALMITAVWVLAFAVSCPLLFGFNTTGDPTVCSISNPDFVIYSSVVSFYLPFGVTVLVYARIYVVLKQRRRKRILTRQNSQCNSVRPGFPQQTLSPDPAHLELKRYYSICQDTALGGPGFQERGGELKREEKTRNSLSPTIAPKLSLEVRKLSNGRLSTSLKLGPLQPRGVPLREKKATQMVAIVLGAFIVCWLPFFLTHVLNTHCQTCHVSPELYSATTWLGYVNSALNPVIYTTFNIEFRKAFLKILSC
Sequence of Histamine H2 receptor (P25021 whole entry): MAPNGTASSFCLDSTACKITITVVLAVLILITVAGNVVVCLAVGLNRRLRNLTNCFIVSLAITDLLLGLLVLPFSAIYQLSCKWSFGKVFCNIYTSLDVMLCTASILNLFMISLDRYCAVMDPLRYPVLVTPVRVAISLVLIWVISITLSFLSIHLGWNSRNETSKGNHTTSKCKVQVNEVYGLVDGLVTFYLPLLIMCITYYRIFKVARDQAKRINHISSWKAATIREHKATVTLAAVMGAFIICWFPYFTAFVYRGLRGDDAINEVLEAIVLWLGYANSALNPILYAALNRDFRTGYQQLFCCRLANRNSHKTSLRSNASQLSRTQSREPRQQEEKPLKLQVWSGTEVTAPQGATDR
T3 sequence (P35372 whole entry): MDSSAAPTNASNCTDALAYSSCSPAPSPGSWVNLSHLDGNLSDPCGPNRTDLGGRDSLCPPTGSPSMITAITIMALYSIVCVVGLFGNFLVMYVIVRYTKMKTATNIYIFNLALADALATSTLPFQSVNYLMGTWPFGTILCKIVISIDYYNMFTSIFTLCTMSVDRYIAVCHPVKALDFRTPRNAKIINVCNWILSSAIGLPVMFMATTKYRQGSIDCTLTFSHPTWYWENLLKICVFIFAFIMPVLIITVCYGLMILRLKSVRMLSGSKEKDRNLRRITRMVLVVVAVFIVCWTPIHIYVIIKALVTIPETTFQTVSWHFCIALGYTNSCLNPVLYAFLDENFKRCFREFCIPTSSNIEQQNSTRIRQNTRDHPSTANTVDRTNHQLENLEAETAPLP
Sequence of Sodium-dependent dopamine transporter (Q01959 whole entry): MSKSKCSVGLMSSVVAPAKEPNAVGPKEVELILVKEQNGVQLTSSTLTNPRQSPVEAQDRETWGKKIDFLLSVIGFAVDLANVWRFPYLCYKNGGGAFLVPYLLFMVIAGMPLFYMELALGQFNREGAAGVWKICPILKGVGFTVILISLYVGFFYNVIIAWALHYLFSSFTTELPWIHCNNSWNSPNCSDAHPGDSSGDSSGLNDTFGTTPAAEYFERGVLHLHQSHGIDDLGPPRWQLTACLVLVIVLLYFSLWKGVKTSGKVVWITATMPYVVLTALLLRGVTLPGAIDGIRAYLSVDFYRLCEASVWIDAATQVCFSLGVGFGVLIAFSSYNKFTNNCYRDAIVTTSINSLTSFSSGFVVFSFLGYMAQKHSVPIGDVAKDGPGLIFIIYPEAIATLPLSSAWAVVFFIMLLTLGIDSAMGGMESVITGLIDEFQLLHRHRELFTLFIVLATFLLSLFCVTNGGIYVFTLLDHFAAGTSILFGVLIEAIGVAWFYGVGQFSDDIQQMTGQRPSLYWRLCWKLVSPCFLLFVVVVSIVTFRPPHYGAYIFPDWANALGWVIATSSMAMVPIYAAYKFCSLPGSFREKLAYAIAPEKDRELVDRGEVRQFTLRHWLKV
Sequence of Sodium-dependent serotonin transporter (P31645 whole entry): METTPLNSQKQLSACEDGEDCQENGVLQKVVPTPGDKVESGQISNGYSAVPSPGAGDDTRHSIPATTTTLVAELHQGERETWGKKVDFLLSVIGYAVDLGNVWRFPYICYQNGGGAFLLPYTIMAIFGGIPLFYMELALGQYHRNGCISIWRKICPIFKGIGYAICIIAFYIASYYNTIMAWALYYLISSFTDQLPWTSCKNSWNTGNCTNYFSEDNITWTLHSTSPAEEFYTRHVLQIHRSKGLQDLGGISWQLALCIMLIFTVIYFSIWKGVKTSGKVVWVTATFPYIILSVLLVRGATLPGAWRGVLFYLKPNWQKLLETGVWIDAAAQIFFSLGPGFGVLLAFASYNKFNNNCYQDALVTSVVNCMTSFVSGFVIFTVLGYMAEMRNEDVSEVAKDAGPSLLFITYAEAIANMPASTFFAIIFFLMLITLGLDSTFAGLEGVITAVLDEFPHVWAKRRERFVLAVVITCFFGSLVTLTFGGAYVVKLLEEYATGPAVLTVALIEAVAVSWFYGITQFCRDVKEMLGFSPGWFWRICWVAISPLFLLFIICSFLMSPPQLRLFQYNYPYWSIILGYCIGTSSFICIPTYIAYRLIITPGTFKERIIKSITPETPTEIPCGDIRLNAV
Sequence of Histamine H3 receptor (Q9Y5N1 whole entry): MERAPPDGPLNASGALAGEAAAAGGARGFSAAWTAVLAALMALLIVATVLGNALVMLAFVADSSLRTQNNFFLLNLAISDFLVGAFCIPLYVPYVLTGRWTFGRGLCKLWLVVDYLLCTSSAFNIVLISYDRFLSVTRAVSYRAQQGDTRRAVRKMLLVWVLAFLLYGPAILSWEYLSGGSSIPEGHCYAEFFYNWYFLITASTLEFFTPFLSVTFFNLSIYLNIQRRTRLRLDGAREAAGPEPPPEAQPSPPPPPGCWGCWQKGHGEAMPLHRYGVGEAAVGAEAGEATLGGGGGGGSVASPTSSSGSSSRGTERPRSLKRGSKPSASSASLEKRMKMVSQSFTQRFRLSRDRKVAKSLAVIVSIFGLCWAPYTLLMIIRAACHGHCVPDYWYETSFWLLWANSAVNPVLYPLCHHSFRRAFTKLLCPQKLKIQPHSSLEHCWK
Sequence of Muscarinic acetylcholine receptor M3 (P20309 whole entry): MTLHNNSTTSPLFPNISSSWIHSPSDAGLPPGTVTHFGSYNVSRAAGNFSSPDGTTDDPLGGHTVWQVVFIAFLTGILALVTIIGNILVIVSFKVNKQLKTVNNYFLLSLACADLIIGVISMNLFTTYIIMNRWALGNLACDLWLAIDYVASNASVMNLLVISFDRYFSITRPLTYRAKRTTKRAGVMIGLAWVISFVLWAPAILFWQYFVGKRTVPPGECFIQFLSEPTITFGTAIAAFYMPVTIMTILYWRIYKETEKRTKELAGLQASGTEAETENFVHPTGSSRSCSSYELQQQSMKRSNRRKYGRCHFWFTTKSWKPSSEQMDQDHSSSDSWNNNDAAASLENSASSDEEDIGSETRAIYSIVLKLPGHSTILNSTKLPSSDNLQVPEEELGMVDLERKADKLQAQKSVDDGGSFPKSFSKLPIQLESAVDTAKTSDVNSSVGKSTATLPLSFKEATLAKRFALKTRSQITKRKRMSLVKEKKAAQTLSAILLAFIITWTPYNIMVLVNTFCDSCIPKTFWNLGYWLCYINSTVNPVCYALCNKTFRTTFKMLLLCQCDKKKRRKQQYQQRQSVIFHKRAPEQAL
Sequence of Histamine H1 receptor (P35367 whole entry): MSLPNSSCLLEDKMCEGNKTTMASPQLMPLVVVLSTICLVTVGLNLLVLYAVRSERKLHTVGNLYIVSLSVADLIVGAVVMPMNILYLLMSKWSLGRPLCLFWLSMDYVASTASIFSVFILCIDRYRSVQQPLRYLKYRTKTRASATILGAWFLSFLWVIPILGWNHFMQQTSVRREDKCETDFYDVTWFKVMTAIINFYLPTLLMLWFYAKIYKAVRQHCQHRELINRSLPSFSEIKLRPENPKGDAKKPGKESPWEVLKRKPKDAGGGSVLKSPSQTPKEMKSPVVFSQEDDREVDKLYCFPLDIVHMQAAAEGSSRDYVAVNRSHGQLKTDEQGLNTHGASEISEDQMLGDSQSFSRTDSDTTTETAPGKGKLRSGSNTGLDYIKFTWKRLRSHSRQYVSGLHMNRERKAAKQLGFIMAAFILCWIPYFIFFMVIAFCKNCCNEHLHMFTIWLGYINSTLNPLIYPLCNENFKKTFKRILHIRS
Sequence of Prostaglandin G/H synthase 1 (P23219 whole entry): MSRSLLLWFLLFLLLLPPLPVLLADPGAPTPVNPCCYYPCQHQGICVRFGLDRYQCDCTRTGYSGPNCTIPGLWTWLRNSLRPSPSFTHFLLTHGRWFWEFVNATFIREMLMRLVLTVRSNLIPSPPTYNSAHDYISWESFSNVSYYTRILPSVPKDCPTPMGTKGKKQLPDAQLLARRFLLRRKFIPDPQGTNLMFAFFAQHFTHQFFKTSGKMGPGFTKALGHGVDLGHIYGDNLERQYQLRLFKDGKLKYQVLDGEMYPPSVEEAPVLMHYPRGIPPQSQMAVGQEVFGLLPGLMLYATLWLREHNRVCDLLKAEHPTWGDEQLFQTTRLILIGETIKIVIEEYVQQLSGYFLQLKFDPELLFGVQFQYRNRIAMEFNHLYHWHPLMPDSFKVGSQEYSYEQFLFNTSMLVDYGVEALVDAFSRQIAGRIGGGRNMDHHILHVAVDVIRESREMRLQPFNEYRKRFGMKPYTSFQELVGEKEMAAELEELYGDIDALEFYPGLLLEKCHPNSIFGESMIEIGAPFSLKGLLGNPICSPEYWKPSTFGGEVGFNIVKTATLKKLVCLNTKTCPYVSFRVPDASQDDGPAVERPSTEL
Sequence of Beta-2 adrenergic receptor (P07550 whole entry): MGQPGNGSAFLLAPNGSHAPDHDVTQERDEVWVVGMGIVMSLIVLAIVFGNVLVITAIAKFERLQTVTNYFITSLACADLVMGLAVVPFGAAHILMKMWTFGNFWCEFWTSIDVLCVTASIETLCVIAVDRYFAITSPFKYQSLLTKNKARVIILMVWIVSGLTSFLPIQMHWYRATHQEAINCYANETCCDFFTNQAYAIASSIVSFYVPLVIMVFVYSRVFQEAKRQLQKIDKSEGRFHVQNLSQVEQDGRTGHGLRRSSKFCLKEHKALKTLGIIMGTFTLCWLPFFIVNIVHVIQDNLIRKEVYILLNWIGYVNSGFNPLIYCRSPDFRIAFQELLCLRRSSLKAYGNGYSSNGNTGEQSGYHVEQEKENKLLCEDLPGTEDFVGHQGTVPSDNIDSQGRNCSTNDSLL

Take `O=C(O)[C@@H](S)[C@@H](S)C(=O)O`: the half-maximal activity concentration (AC50) in [1], in [2], in experiment [3], in experiment [4], in [5] and in [6] was more than 30 µM throughout. The AC50 in [7] was more than 30 µM.
With `CCOC(=O)[C@H](CCc1ccccc1)N[C@@H](C)C(=O)N1Cc2ccccc2C[C@H]1C(=O)O`, the AC50 in experiment [1] is more than 30 µM; in experiment [8], more than 30 µM; in experiment [2], more than 30 µM; in experiment [3], more than 30 µM; in experiment [9], more than 10 µM; in experiment [4], more than 30 µM. The AC50 in experiment [5] was more than 30 µM; in experiment [6], more than 30 µM; in experiment [7] it was more than 30 µM; in experiment [10], more than 10 µM; in experiment [11], more than 10 µM.
As to `C=CC1=C(C(=O)O)N2C(=O)[C@@H](NC(=O)/C(=N\O)c3csc(N)n3)[C@H]2SC1`, the AC50 in [8] was more than 30 µM; in experiment [12] it was more than 30 µM; in [13], more than 10 µM; in [9], more than 10 µM; in experiment [10] it was more than 30 µM; in experiment [14], more than 30 µM. The compound also gave an AC50 in [11] of more than 30 µM.
`O=C(O)COC(=O)Cc1ccccc1Nc1c(Cl)cccc1Cl` [ACECLOFENAC]: the concentration at half-maximal activity (AC50) is more than 10 µM in [9], more than 30 µM in experiment [10] and more than 30 µM in experiment [11].
Take `CC[N+](CC)(CCNC(=O)C(=O)NCC[N+](CC)(CC)Cc1ccccc1Cl)Cc1ccccc1Cl` [AMBENONIUM]: the AC50 in experiment [12] is 1.1 µM; in [13] it was more than 30 µM; in experiment [9], more than 30 µM; in experiment [15], 4.3 µM; in [10], more than 30 µM; in [14], 6.1 µM.
`NCCCCCC(=O)O` [AMINOCAPROIC ACID]: the results for the AC50 in experiment [9], in experiment [10] and in experiment [11] were more than 10 µM, 12.7 µM and more than 30 µM, respectively.
Take `CN(C)CCC=C1c2ccccc2CCc2ccccc21` [AMITRIPTYLINE]: the AC50 in experiment [1] was more than 30 µM; in experiment [3], 0.147 µM; in experiment [4], more than 30 µM; in experiment [5], more than 30 µM; in experiment [6], more than 30 µM; in [7], 26.3 µM. The AC50 in [10] is 13.8 µM; in experiment [11] it was more than 30 µM.
With `CC(=O)Oc1ccccc1C(=O)O` [ASPIRIN], the AC50 was more than 30 µM in experiment [1]; more than 30 µM in experiment [8]; more than 30 µM in [2]; more than 30 µM in [3]; more than 10 µM in experiment [9]; more than 30 µM in [4]. Moreover, the AC50 in [6], in [7], in [10] and in experiment [11] was more than 30 µM in each case.
`CC(C)NCC(O)COc1ccc(CC(N)=O)cc1` (stereo not drawn) [ATENOLOL] returned an AC50 in experiment [9] of more than 30 µM.
`CC(C)C[C@H](NC(=O)[C@H](Cc1ccccc1)NC(=O)c1cnccn1)B(O)O` [BORTEZOMIB]: the half-maximal activity concentration (AC50) in experiment [12], in [13], in [9], in experiment [15], in [10] and in experiment [14] was more than 30 µM throughout.
In the case of `C[C@H](CS)C(=O)N1CCC[C@H]1C(=O)O` [CAPTOPRIL], the concentration at half-maximal activity (AC50) in experiment [8], in experiment [9], in [10] and in [11] was more than 30 µM each time.
Take `NC(=O)C1(N2CCCCC2)CCN(CCCN2c3ccccc3CCc3ccccc32)CC1` [CARPIPRAMINE]: the concentration at half-maximal activity (AC50) was more than 30 µM in experiment [1]; 4.39 µM in experiment [2]; 0.0207 µM in experiment [3]; 11.7 µM in experiment [4]; more than 30 µM in experiment [5]; 24.6 µM in [6].
Take `CN(C)CCCC1(c2ccc(F)cc2)OCc2cc(C#N)ccc21` (stereo not drawn) [CITALOPRAM]: the AC50 in experiment [1], in experiment [8], in [4], in experiment [5], in experiment [6] and in experiment [7] was more than 30 µM each time.
With `O=P1(N(CCCl)CCCl)NCCCO1` (stereo not drawn) [CYCLOPHOSPHAMIDE ANHYDROUS], the AC50 in experiment [1], in [2], in experiment [3], in experiment [4], in experiment [5] and in experiment [6] was more than 30 µM in each case. This compound displayed an AC50 in experiment [7] of more than 30 µM.
`COC(=O)CCc1ccc(OCC(O)CNC(C)C)cc1` (stereo not drawn) [ESMOLOL]: the AC50 in experiment [9], in [15] and in experiment [10] was more than 30 µM each time.
As to `O=c1[nH]c2ccccc2n1CCN1CCN(c2cccc(C(F)(F)F)c2)CC1` [FLIBANSERIN], the AC50 in experiment [1] is more than 30 µM; in [2], more than 30 µM; in experiment [3], 0.286 µM; in experiment [4], more than 30 µM; in experiment [5] it was more than 30 µM; in [6] it was more than 30 µM. The compound further returned an AC50 in [7] of 10.5 µM.
`C[C@]12CCC(=O)C=C1CC[C@H]1[C@@H]3CC[C@](O)(C(=O)CO)[C@@]3(C)C[C@H](O)[C@@]12F` [FLUDROCORTISONE]: the AC50 is more than 30 µM in experiment [8]; more than 30 µM in [12]; more than 10 µM in experiment [13]; more than 10 µM in experiment [9]; more than 30 µM in [10]; more than 30 µM in experiment [14]. In [11], the AC50 was more than 30 µM.
`O=c1[nH]cc(F)c(=O)[nH]1` [FLUOROURACIL]: the half-maximal activity concentration (AC50) in [1], in experiment [2], in experiment [3], in experiment [4], in experiment [5] and in [6] was more than 30 µM each time. The AC50 in experiment [7] and in experiment [10] was more than 30 µM throughout.
With `CCN(CCO)CCCC(C)Nc1ccnc2cc(Cl)ccc12` (stereo not drawn) [HYDROXYCHLOROQUINE], the concentration at half-maximal activity (AC50) in experiment [9] is more than 10 µM; in [15] it was more than 30 µM; in experiment [10], more than 10 µM; in experiment [11], more than 30 µM.
`OCCOCCN1CCN(C(c2ccccc2)c2ccc(Cl)cc2)CC1` (stereo not drawn) [HYDROXYZINE]: the concentration at half-maximal activity (AC50) is more than 30 µM in experiment [8]; more than 10 µM in [12]; 0.039 µM in experiment [13]; more than 10 µM in experiment [9]; more than 10 µM in experiment [10]; more than 10 µM in experiment [14]. The AC50 in experiment [11] was more than 30 µM.
For `CNC1(c2ccccc2Cl)CCCCC1=O` (stereo not drawn) [KETAMINE], the AC50 in experiment [1], in [2], in experiment [3], in [4], in experiment [5] and in experiment [6] was more than 30 µM throughout. Also, the AC50 in experiment [7] was more than 30 µM.
For the compound `O=C(c1ccccc1)c1ccc2n1CCC2C(=O)O` (stereo not drawn) [KETOROLAC], the AC50 was more than 30 µM in experiment [9], 0.0013 µM in [15], more than 10 µM in experiment [10] and more than 30 µM in experiment [11].
As for `Nc1nnc(-c2cccc(Cl)c2Cl)c(N)n1` [LAMOTRIGINE], the AC50 is more than 30 µM in experiment [8], more than 10 µM in experiment [9], more than 10 µM in [10] and more than 30 µM in experiment [11].
For the compound `O=NN(CCCl)C(=O)NC1CCCCC1` [LOMUSTINE], the AC50 in experiment [1], in experiment [2], in experiment [3], in experiment [4], in experiment [5] and in [6] was more than 30 µM each time. Moreover, in experiment [7], the AC50 is more than 30 µM.
`CNC1(C)C2CCC(C2)C1(C)C` (stereo not drawn) [MECAMYLAMINE]: the AC50 is more than 30 µM in experiment [12]; more than 10 µM in experiment [13]; more than 10 µM in [9]; more than 10 µM in [10]; more than 10 µM in experiment [14]; more than 30 µM in experiment [11].
With `CCC1(c2ccccc2)C(=O)NCNC1=O` [PRIMIDONE], the AC50 in experiment [9] is more than 10 µM; in [10], more than 10 µM; in [11], more than 30 µM.
For the compound `C[C@H](Cn1cnc2c(N)ncnc21)OCP(=O)(O)O` [TENOFOVIR ANHYDROUS], the AC50 in experiment [12], in experiment [13], in [9], in experiment [15], in experiment [10] and in [14] was more than 30 µM in each case.

For orientation: AC50 means the concentration giving half of the maximal activity seen. Read a low AC50 as activity at low concentration.
